One experiment relates to Serratia marcescens. As to the kind of experiment: serial broth dilution test, growth inhibition. As to conditions: nutrient broth, incubated at 37° C. for 2 days, examined for presence of growth. In kind it is cell-based. The procedure: (§1) Grove and W. A. Randall in "Assay Methods of Antibiotics", Med. Encycl. Inc., New York, 1955.
(§2) For example, by employing a test like the serial broth dilution, see Grove and Randall, cited above, in which dilutions of the compounds of this invention in nutrient broth are inoculated with the microorganisms or fungi, described above, incubated at 37° C. for 2 days, respectively, and examined for the presence of growth, it may be shown that isomers L and M of cyclo-[N-[1-(1-methylethyl)-2-cyclohexylamino-2-oxo-ethyl]-alanyl-phenylalanyl-valylglycyl-leucyl-methionyl] (described in Example 2) are able to inhibit growth totally in this system of Klebsiella pneumoniae and Serratia marcescens at a concentration of 100/mcg/ml.

A further experiment has as its system Klebsiella pneumoniae. As to the kind of experiment: serial broth dilution test, growth inhibition. In kind it is cell-based. As to conditions: nutrient broth, incubated at 37° C. for 2 days, examined for presence of growth. The procedure: as §1, §2
For orientation: Broth dilution looks for growth in wells or tubes with falling amounts of substance.

`CSCC[C@@H]1NC(=O)[C@H](CC(C)C)NC(=O)CNC(=O)[C@H](C(C)C)NC(=O)[C@H](Cc2ccccc2)NC(=O)[C@H](C)N(C(C(=O)NC2CCCCC2)C(C)C)C1=O` (stereo partly drawn) [isomer L, Cyclo[N-[1-(1-methylethyl)-2-cyclohexylamino-2-oxo-ethyl]-alanyl-phenylalanyl-valyl-glycyl-leucyl-methionyl]]: the “concentration able to inhibit growth totally” value with Serratia marcescens and with Klebsiella pneumoniae was 100 µg/mL throughout.
